From patent US20070129380A1

Experiments:
Botrytis cinerea = assay: Activity against gray mold on bell pepper leaves caused by Botrytis cinerea, protective application; assay type: in vivo; conditions: 250 ppm active compound, sprayed to runoff, bell pepper seedlings, inoculated next day, assessed after 5 days; untreated plants 90% infected
Experimental: The active compounds were prepared separately as a stock solution with 0.25% by weight of active compound in acetone or DMSO. 1% by weight of the emulsifier Uniperol® EL (wetting agent having emulsifying and dispersing action based on ethoxylated alkyl-phenols) was added to this solution. The stock solutions of the active compounds were diluted with water to the desired concentration. 1) Activity Against Gray Mold on Bell Pepper Leaves Caused by Botrytis cinerea, Protective Application […] The next day, the treated plants were inoculated with a spore suspension of Botrytis cinerea, this contained 1.7×10^6 spores/ml in a 2% strength aqueous biomalt solution. The test plants were then placed in a climate-chamber at 22-24° C. and high atmospheric humidity.

[1] = tested on: Pyrenophora [syn. Drechslera] teres; assay: Activity against net blotch of barley caused by Pyrenophora teres; assay type: in vivo; conditions: 250 ppm active compound, sprayed to runoff, barley seedlings, inoculated 24 hours after drying, assessed after 6 days; untreated plants 80% infected
Experimental: The active compounds were prepared separately as a stock solution with 0.25% by weight of active compound in acetone or DMSO. 1% by weight of the emulsifier Uniperol® EL (wetting agent having emulsifying and dispersing action based on ethoxylated alkyl-phenols) was added to this solution. The stock solutions of the active compounds were diluted with water to the desired concentration. 4) Activity Against Net Blotch of Barley Caused by Pyrenophora teres […] Drechslera] teres, the causative agent of net blotch. The test plants were subsequently placed in a greenhouse at temperatures of between 20 and 24° C. and a relative atmospheric humidity of 95 to 100%. After 6 days, the extent of development of the disease was determined visually in % of infection of the total leaf area.

Row | SMILES | melting point | extent of the fungal infection on the leaves determined visually in % (Botrytis cinerea) | extent of development of the disease determined visually in % of infection of the total leaf area [1]
1 | C[C@H](Nc1nc(C(N)=S)nc(Cl)c1-c1c(F)cc(F)cc1F)C(F)(F)F [Compound I-2, (S)-4-chloro-6-(2,2,2-trifluoro-1-methylethylamino)-5-(2,4,6-trifluorophenyl)pyrimidine-2-thiocarbamide] | – | not infected | –
2 | CC(C)Nc1nc(C(N)=S)nc(Cl)c1-c1c(F)cccc1Cl [Compound I-3] | – | not infected | –
3 | CCC(C)Nc1nc(C(N)=S)nc(Cl)c1-c1c(F)cccc1Cl (stereo not drawn) [Compound I-8, 4-sec-butylamino-6-chloro-5-(2-chloro-6-fluorophenyl)pyrimidine-2-thiocarbamide] | 147 to 150 °C | not infected | –

Continued, in another order:

Row | melting point | SMILES | extent of the fungal infection on the leaves determined visually in % (Botrytis cinerea) | extent of development of the disease determined visually in % of infection of the total leaf area [1]
4 | 145 to 149 °C | CC(C)Nc1nc(C(N)=S)nc(Cl)c1-c1c(F)cc(F)cc1F [Compound I-4] | not infected | –
5 | 55 to 58 °C | CCN(CC)c1nc(C(N)=S)nc(Cl)c1-c1c(F)cc(F)cc1F [Compound I-19] | – | 10%
6 | 158 °C | Cc1nc(C(N)=S)nc(NC(C)C)c1-c1c(F)cc(F)cc1F [Compound I-23] | – | –
